{"source": "paper PMC5218480", "about": "(PLoS ONE, 2017)", "system": "MV-4-11 cells", "test": "Gene expression microarray analysis (Affymetrix PrimeView) and GSEA", "assay_type": "cell-based, human", "parameters": "RFU PODN (11730768_x_at) / Fold change /veh PODN (11730768_x_at) / RFU LINC00158 (11744669_a_at) / Fold change /veh LINC00158 (11744669_a_at) / RFU DUSP10 (11751237_a_at) / Fold change /veh DUSP10 (11751237_a_at) / RFU ID3 (11757404_x_at) / Fold change /veh ID3 (11757404_x_at) / RFU PLEKHG5 (11737974_s_at) / Fold change /veh PLEKHG5 (11737974_s_at) / RFU LRRC4B (11730491_at) / Fold change /veh LRRC4B (11730491_at) / RFU GIMAP4 (11747438_a_at) / Fold change /veh GIMAP4 (11747438_a_at) / RFU KRT8 (11758183_x_at) / Fold change /veh KRT8 (11758183_x_at) / RFU CNN1 (11734310_a_at) / Fold change /veh CNN1 (11734310_a_at) / RFU VPS37D (11726825_at) / Fold change /veh VPS37D (11726825_at) / RFU C10orf10 (11716522_x_at) / Fold change /veh C10orf10 (11716522_x_at) / RFU KIR2DL2 /// KIR2DL4 /// KIR2DL5A /// KIR2DL5B /// KIR2DS1 /// KIR2DS2 /// KIR2DS3 /// KIR2DS4 /// KIR3DL3 /// KIR3DL3 /// KIR3DS1 (11738374_at) / Fold change /veh KIR2DL2 /// KIR2DL4 /// KIR2DL5A /// KIR2DL5B /// KIR2DS1 /// KIR2DS2 /// KIR2DS3 /// KIR2DS4 /// KIR3DL3 /// KIR3DL3 /// KIR3DS1 (11738374_at) / RFU C1QL1 (11718748_at) / Fold change /veh C1QL1 (11718748_at) / RFU TMPRSS4 (11747572_a_at) / Fold change /veh TMPRSS4 (11747572_a_at) / RFU HAMP (11756126_x_at) / Fold change /veh HAMP (11756126_x_at) / RFU RNFT2 (11725882_a_at) / Fold change /veh RNFT2 (11725882_a_at) / RFU NR4A2 (11747474_a_at) / Fold change /veh NR4A2 (11747474_a_at) / RFU ABCC12 (11746883_a_at) / Fold change /veh ABCC12 (11746883_a_at) / RFU TMEM136 (11760407_x_at) / Fold change /veh TMEM136 (11760407_x_at) / RFU CLDN22 /// WWC2 (11732394_at) / Fold change /veh CLDN22 /// WWC2 (11732394_at) / RFU HLA-DPB1 (11760878_x_at) / Fold change /veh HLA-DPB1 (11760878_x_at) / RFU SPINT1 (11716480_a_at) / Fold change /veh SPINT1 (11716480_a_at) / RFU GAP43 (11754022_s_at) / Fold change /veh GAP43 (11754022_s_at) / RFU A4GNT (11735810_at) / Fold change /veh A4GNT (11735810_at) / RFU PRB3 (11715151_x_at) / Fold change /veh PRB3 (11715151_x_at) / RFU TUBB4B (11761932_at) / Fold change /veh TUBB4B (11761932_at) / RFU CAPN14 (11732068_a_at) / Fold change /veh CAPN14 (11732068_a_at) / RFU TMCC2 (11721928_a_at) / Fold change /veh TMCC2 (11721928_a_at) / RFU IRGQ (11745062_a_at) / Fold change /veh IRGQ (11745062_a_at) / RFU FAM174B (11720279_a_at) / Fold change /veh FAM174B (11720279_a_at) / RFU TMPRSS4 (11748680_a_at) / Fold change /veh TMPRSS4 (11748680_a_at) / RFU FAM212B (11763350_a_at) / Fold change /veh FAM212B (11763350_a_at) / RFU PLEKHG5 (11743358_a_at) / Fold change /veh PLEKHG5 (11743358_a_at) / RFU ZSCAN30 (11745921_a_at) / Fold change /veh ZSCAN30 (11745921_a_at) / RFU CMKLR1 (11741424_a_at) / Fold change /veh CMKLR1 (11741424_a_at) / RFU LOC101060620 /// MAPK8IP1 (11723275_at) / Fold change /veh LOC101060620 /// MAPK8IP1 (11723275_at) / RFU SPTSSB (11747773_x_at) / Fold change /veh SPTSSB (11747773_x_at) / RFU PRSS12 (11739890_at) / Fold change /veh PRSS12 (11739890_at) / RFU BIN1 (11741810_x_at) / Fold change /veh BIN1 (11741810_x_at) / RFU WNT11 (11732464_a_at) / Fold change /veh WNT11 (11732464_a_at) / RFU C10orf10 (11716521_a_at) / Fold change /veh C10orf10 (11716521_a_at) / RFU C5orf56 (11738089_at) / Fold change /veh C5orf56 (11738089_at) / RFU CYB561 (11721691_x_at) / Fold change /veh CYB561 (11721691_x_at) / RFU ANKRD19P (11752326_a_at) / Fold change /veh ANKRD19P (11752326_a_at) / RFU OR2T12 /// OR2T33 /// OR2T8 (11738714_s_at) / Fold change /veh OR2T12 /// OR2T33 /// OR2T8 (11738714_s_at) / RFU VCAN (11748164_a_at) / Fold change /veh VCAN (11748164_a_at) / RFU JSRP1 (11732532_at) / Fold change /veh JSRP1 (11732532_at) / RFU KRTAP10-11 (11738290_x_at) / Fold change /veh KRTAP10-11 (11738290_x_at) / RFU MYO3A (11730013_a_at) / Fold change /veh MYO3A (11730013_a_at) / RFU EBF3 (11725865_a_at) / Fold change /veh EBF3 (11725865_a_at) / RFU CAMK2N1 (11719241_x_at) / Fold change /veh CAMK2N1 (11719241_x_at) / RFU C5orf56 (11738088_a_at) / Fold change /veh C5orf56 (11738088_a_at) / RFU OLFML3 (11715873_a_at) / Fold change /veh OLFML3 (11715873_a_at) / RFU LOC100653217 /// NTM (11731650_a_at) / Fold change /veh LOC100653217 /// NTM (11731650_a_at) / RFU MAPK11 (11762145_a_at) / Fold change /veh MAPK11 (11762145_a_at) / RFU FIZ1 (11724087_x_at) / Fold change /veh FIZ1 (11724087_x_at) / RFU OASL (11726364_x_at) / Fold change /veh OASL (11726364_x_at) / RFU SOX15 (11748057_x_at) / Fold change /veh SOX15 (11748057_x_at) / RFU CD79A (11719716_a_at) / Fold change /veh CD79A (11719716_a_at) / RFU HIST1H1D (11736915_at) / Fold change /veh HIST1H1D (11736915_at) / RFU CASKIN2 (11723855_a_at) / Fold change /veh CASKIN2 (11723855_a_at) / RFU LOC730098 (11760151_x_at) / Fold change /veh LOC730098 (11760151_x_at) / RFU OR4N2 (11742367_at) / Fold change /veh OR4N2 (11742367_at) / RFU PRRT2 (11749266_a_at) / Fold change /veh PRRT2 (11749266_a_at) / RFU SNX32 (11753110_a_at) / Fold change /veh SNX32 (11753110_a_at) / RFU CDHR5 (11726645_a_at) / Fold change /veh CDHR5 (11726645_a_at) / RFU RCAN1 (11760418_a_at) / Fold change /veh RCAN1 (11760418_a_at) / RFU FAM167A (11723789_a_at) / Fold change /veh FAM167A (11723789_a_at) / RFU FAM26E (11764081_at) / Fold change /veh FAM26E (11764081_at) / RFU ISYNA1 (11749810_s_at) / Fold change /veh ISYNA1 (11749810_s_at) / RFU ACY1 (11761880_at) / Fold change /veh ACY1 (11761880_at) / RFU 11764098_at / Fold change /veh 11764098_at / RFU SAMD14 (11745864_x_at) / Fold change /veh SAMD14 (11745864_x_at) / RFU NPB (11741838_a_at) / Fold change /veh NPB (11741838_a_at) / RFU TMPRSS6 (11731388_a_at) / Fold change /veh TMPRSS6 (11731388_a_at) / RFU KRTAP10-2 (11738614_at) / Fold change /veh KRTAP10-2 (11738614_at) / RFU ARHGAP8 /// PRR5-ARHGAP8 (11727945_x_at) / Fold change /veh ARHGAP8 /// PRR5-ARHGAP8 (11727945_x_at) / RFU KRTAP5-7 /// NADSYN1 (11734609_at) / Fold change /veh KRTAP5-7 /// NADSYN1 (11734609_at) / RFU RASL12 (11751679_a_at) / Fold change /veh RASL12 (11751679_a_at) / RFU CDKN2B (11736163_a_at) / Fold change /veh CDKN2B (11736163_a_at) / RFU PRF1 (11729649_at) / Fold change /veh PRF1 (11729649_at) / RFU, ZNF638 /// ZNF638-IT1 / Fold change vs veh, ZNF638 /// ZNF638-IT1 / RFU, PANK3 / Fold change vs veh, PANK3 / RFU, SH3YL1 / Fold change vs veh, SH3YL1 / RFU, ZEB2 / Fold change vs veh, ZEB2 / RFU, NRIP1 / Fold change vs veh, NRIP1 / RFU, PTTG1IP / Fold change vs veh, PTTG1IP / RFU, CAPN2 / Fold change vs veh, CAPN2 / RFU, MED14 / Fold change vs veh, MED14 / RFU, SNORA58 / Fold change vs veh, SNORA58 / RFU, C1orf63 / Fold change vs veh, C1orf63 / RFU, LRRFIP1 / Fold change vs veh, LRRFIP1 / RFU, NDUFAF7 / Fold change vs veh, NDUFAF7 / RFU, SLC12A2 / Fold change vs veh, SLC12A2 / RFU, IBTK / Fold change vs veh, IBTK / RFU, ESF1 / Fold change vs veh, ESF1 / Fold change vs veh, TMEM50B / RFU, TAOK1 / Fold change vs veh, TAOK1 / RFU, ACBD3 / Fold change vs veh, ACBD3 / RFU, TMA16 / Fold change vs veh, TMA16 / RFU, RWDD3 / Fold change vs veh, RWDD3 / RFU, BCAT1 / Fold change vs veh, BCAT1 / RFU, EDEM3 / Fold change vs veh, EDEM3 / RFU, TMEM33 / Fold change vs veh, TMEM33 / RFU, WDR75 / Fold change vs veh, WDR75 / RFU, AHCTF1 / Fold change vs veh, AHCTF1 / RFU, TFRC / Fold change vs veh, TFRC / RFU, ZDHHC17 / Fold change vs veh, ZDHHC17 / RFU, NOM1 / Fold change vs veh, NOM1 / RFU, ARL8B / Fold change vs veh, ARL8B / RFU, ZBTB11 / Fold change vs veh, ZBTB11 / RFU, TAMM41 / Fold change vs veh, TAMM41 / RFU, KIAA1704 /// LOC100996395 / Fold change vs veh, KIAA1704 /// LOC100996395 / RFU, ING1 / Fold change vs veh, ING1 / RFU, TRMT61B / Fold change vs veh, TRMT61B / RFU, FUBP3 / Fold change vs veh, FUBP3 / RFU, TP53 / Fold change vs veh, TP53 / RFU, TNKS2 / Fold change vs veh, TNKS2 / RFU, ZFP14 / Fold change vs veh, ZFP14 / RFU, ACTR2 / Fold change vs veh, ACTR2 / RFU, PPP3R1 / Fold change vs veh, PPP3R1 / RFU, PIK3R1 / Fold change vs veh, PIK3R1 / RFU, HNRNPA1 / Fold change vs veh, HNRNPA1 / RFU, RNF170 / Fold change vs veh, RNF170 / RFU, ZNF28 / Fold change vs veh, ZNF28 / RFU, RNGTT / Fold change vs veh, RNGTT / RFU, OGT / Fold change vs veh, OGT / RFU, BRD1 / Fold change vs veh, BRD1 / RFU, MARS / Fold change vs veh, MARS / RFU, ZNF655 / Fold change vs veh, ZNF655 / RFU, FAHD1 / Fold change vs veh, FAHD1 / RFU, BDP1 / Fold change vs veh, BDP1 / RFU, LRRCC1 / Fold change vs veh, LRRCC1 / RFU, ARID1A / Fold change vs veh, ARID1A / RFU, ZNF146 / Fold change vs veh, ZNF146 / RFU, ZNF330 / Fold change vs veh, ZNF330 / RFU, GPN3 / Fold change vs veh, GPN3 / RFU, C9orf123 / Fold change vs veh, C9orf123 / RFU, N4BP2L2 / Fold change vs veh, N4BP2L2 / RFU, ARFIP1 / Fold change vs veh, ARFIP1 / RFU, FAM179B / Fold change vs veh, FAM179B / RFU, BCL10 / Fold change vs veh, BCL10 / RFU, UHRF1BP1L / Fold change vs veh, UHRF1BP1L / RFU, BET1 / Fold change vs veh, BET1 / RFU, CNOT2 / Fold change vs veh, CNOT2 / RFU, ZNF268 / Fold change vs veh, ZNF268 / Fold change vs veh, ZNF507 / RFU, DGCR2 / Fold change vs veh, DGCR2 / RFU, WDSUB1 / Fold change vs veh, WDSUB1 / Fold change vs veh, HSP90B1 /// MIR3652 / RFU, ADSS / Fold change vs veh, ADSS / RFU, GK / Fold change vs veh, GK / RFU, ZNF148 / Fold change vs veh, ZNF148 / RFU, TAF9 / Fold change vs veh, TAF9 / RFU, SLC1A5 / Fold change vs veh, SLC1A5 / RFU, SLMO2 / Fold change vs veh, SLMO2 / RFU, ABCC4 / Fold change vs veh, ABCC4 / RFU, LOC101060439 /// RAP1B / Fold change vs veh, LOC101060439 /// RAP1B / RFU, RFX7 / Fold change vs veh, RFX7 / RFU, GTPBP10 / Fold change vs veh, GTPBP10 / RFU, CNEP1R1 / Fold change vs veh, CNEP1R1 / RFU, BIVM-ERCC5 /// ERCC5 / Fold change vs veh, BIVM-ERCC5 /// ERCC5 / RFU, ILF3 / Fold change vs veh, ILF3 / RFU 11762660_at / Fold change /veh 11762660_at / RFU VCAN (11757783_s_at) / Fold change /veh VCAN (11757783_s_at) / RFU DDX43 (11728927_at) / Fold change /veh DDX43 (11728927_at) / RFU KRT8 (11758188_x_at) / Fold change /veh KRT8 (11758188_x_at) / RFU NKD1 (11759106_at) / Fold change /veh NKD1 (11759106_at) / RFU SRD5A1 (11742802_a_at) / Fold change /veh SRD5A1 (11742802_a_at) / RFU TPSAB1 /// TPSB2 (11721975_s_at) / Fold change /veh TPSAB1 /// TPSB2 (11721975_s_at) / RFU GSTM3 (11746129_a_at) / Fold change /veh GSTM3 (11746129_a_at) / RFU IL23R (11737362_x_at) / Fold change /veh IL23R (11737362_x_at) / RFU TMEM51 (11727254_a_at) / Fold change /veh TMEM51 (11727254_a_at) / RFU PIWIL2 (11732686_x_at) / Fold change /veh PIWIL2 (11732686_x_at) / RFU ORM1 (11744905_x_at) / Fold change /veh ORM1 (11744905_x_at) / RFU CCDC152 (11743942_at) / Fold change /veh CCDC152 (11743942_at) / RFU ECM1 (11717891_a_at) / Fold change /veh ECM1 (11717891_a_at) / RFU IL23R (11748794_a_at) / Fold change /veh IL23R (11748794_a_at) / RFU TNFAIP8L3 (11732012_x_at) / Fold change /veh TNFAIP8L3 (11732012_x_at) / RFU MBOAT4 (11741988_at) / Fold change /veh MBOAT4 (11741988_at) / RFU 11764193_at / Fold change /veh 11764193_at / RFU TMEM53 (11763286_at) / Fold change /veh TMEM53 (11763286_at) / RFU MAGEB2 (11727129_at) / Fold change /veh MAGEB2 (11727129_at) / RFU TMEM200A (11744735_a_at) / Fold change /veh TMEM200A (11744735_a_at) / RFU CCDC152 (11751479_a_at) / Fold change /veh CCDC152 (11751479_a_at) / RFU FAM211A (11726209_a_at) / Fold change /veh FAM211A (11726209_a_at) / RFU RGS16 (11746705_a_at) / Fold change /veh RGS16 (11746705_a_at) / RFU VCAN (11755009_s_at) / Fold change /veh VCAN (11755009_s_at) / RFU RHOB (11743442_s_at) / Fold change /veh RHOB (11743442_s_at) / RFU RGS16 (11720943_a_at) / Fold change /veh RGS16 (11720943_a_at) / RFU RGS16 (11720944_at) / Fold change /veh RGS16 (11720944_at) / RFU, VPS4B / Fold change vs veh, VPS4B / RFU, CREB1 / Fold change vs veh, CREB1 / RFU, DNAJC13 / Fold change vs veh, DNAJC13 / RFU, GNAQ / Fold change vs veh, GNAQ / RFU, CDK5R1 / Fold change vs veh, CDK5R1 / RFU, ZRANB3 / Fold change vs veh, ZRANB3 / RFU, CUL4A / Fold change vs veh, CUL4A / RFU, CCNY / Fold change vs veh, CCNY / RFU, UFL1 / Fold change vs veh, UFL1 / RFU, COG3 / Fold change vs veh, COG3 / RFU, DIAPH2 / Fold change vs veh, DIAPH2 / RFU, SKA2 / Fold change vs veh, SKA2 / RFU, AFF3 / Fold change vs veh, AFF3 / RFU, LMF1 / Fold change vs veh, LMF1 / RFU, IPO11 / Fold change vs veh, IPO11 / RFU, DFFB / Fold change vs veh, DFFB / RFU, FOXP1 / Fold change vs veh, FOXP1 / RFU, CARD8 / Fold change vs veh, CARD8 / RFU, STRN3 / Fold change vs veh, STRN3 / RFU, ADK / Fold change vs veh, ADK / RFU, RASSF2 / Fold change vs veh, RASSF2 / RFU, WIPF1 / Fold change vs veh, WIPF1 / RFU, LARP1B / Fold change vs veh, LARP1B / RFU, RASA1 / Fold change vs veh, RASA1 / RFU, RB1 / Fold change vs veh, RB1 / RFU, PPFIA1 / Fold change vs veh, PPFIA1 / RFU, MAT2A / Fold change vs veh, MAT2A / RFU, CCT5 / Fold change vs veh, CCT5 / RFU, WDR92 / Fold change vs veh, WDR92 / RFU, CUX1 / Fold change vs veh, CUX1 / RFU, TTC7A / Fold change vs veh, TTC7A / RFU, TMEM135 / Fold change vs veh, TMEM135 / RFU, DEPTOR / Fold change vs veh, DEPTOR / RFU, CPM / Fold change vs veh, CPM / RFU, DNAJB6 / Fold change vs veh, DNAJB6 / RFU, CACNA2D3 / Fold change vs veh, CACNA2D3 / RFU, DTX4 / Fold change vs veh, DTX4 / RFU, TFCP2 / Fold change vs veh, TFCP2 / RFU, GMCL1 /// GMCL1P1 / Fold change vs veh, GMCL1 /// GMCL1P1 / RFU, AEBP2 / Fold change vs veh, AEBP2 / RFU, SNHG1 /// SNORD22 /// SNORD25 /// SNORD26 /// SNORD27 /// SNORD28 /// SNORD29 /// SNORD31 / Fold change vs veh, SNHG1 /// SNORD22 /// SNORD25 /// SNORD26 /// SNORD27 /// SNORD28 /// SNORD29 /// SNORD31 / Fold change (Aza/veh), C12orf56 (ProbeSet 11735607_a_at) / Fold change (ACY-1035/veh), C12orf56 (ProbeSet 11735607_a_at) / Fold change (Aza/veh), FGFR1OP (ProbeSet 11751329_s_at) / Fold change (ACY-1035/veh), FGFR1OP (ProbeSet 11751329_s_at) / Fold change (Aza/veh), VPS36 (ProbeSet 11739960_a_at) / Fold change (ACY-1035/veh), VPS36 (ProbeSet 11739960_a_at) / RFU SYPL1 (11715823_x_at) / Fold change /veh SYPL1 (11715823_x_at) / RFU IGFBP7 (11715501_s_at) / Fold change /veh IGFBP7 (11715501_s_at) / RFU REEP3 (11722064_at) / Fold change /veh REEP3 (11722064_at) / RFU IGLL1 (11728026_x_at) / Fold change /veh IGLL1 (11728026_x_at): dose or concentration left out as unconfirmed", "settings": "ProbeSet 11741199_a_at; LIST B", "data": [{"smiles": "Nc1ccc(-c2cccs2)cc1NC(=O)c1ccc2c(c1)cc(C1CC1)n2CCN1CCOCC1", "note": "[ACY-1035]", "values": [{"measurement": "RFU, LRRCC1", "value": 56.24, "unit": "RFU"}]}]}
